The subject of this assay is UBE2L3-KRAS fusion protein. The assay is described as follows: Western blotting of UBE2L3-KRAS fusion protein in cells treated with bortezomib. In kind it is cell-based, human. On the procedure: The prostate cancer cell lines DU145 were transfected with siRNA duplex (Dharmacon, Lafayette, Colo., USA) against UBE2L3 (5′-CCACCGAAGATCACATTTA-3′; SEQ ID NO:1), KRAS (5′-GAAGTTATGGAATTCCTTT-3′; SEQ ID NO:2) or the fusion junction (5′-CCGACCAAGGCCTGCTGAA-3′; SEQ ID NO:3) by oligofectamine (Invitrogen). DU145 transfected with non-targeting siRNA and RWPE cells was used as negative control. Post 48 hours transfection, cells were homogenized in NP40 lysis buffer (50 mM Tris-HCl, 1% NP40, pH 7.4, Sigma, St. Louis, Mo.), and complete proteinase inhibitor mixture (Roche, Indianapolis, Ind.). Ten micrograms of each protein extract were boiled in sample buffer, separated by SDS-PAGE, and transferred onto Polyvinylidene Difluoride membrane (GE Healthcare, Piscataway, N.J.). The membrane was incubated for one hour in blocking buffer [Tris-buffered saline, 0.1% Tween (TBS-T), 5% nonfat dry milk] and incubated overnight at 4° C. with the following antibodies: anti-RAS mouse monoclonal (1:1000 in blocking buffer, Millipore Cat #: 05-516), anti-KRAS rabbit polyclonal (1:1000, Proteintech Group Inc., Cat #: 12063-1-AP) and anti-beta Actin mouse monoclonal (1:5000, Sigma Cat #: A5441) antibodies. Following three washes with TBS-T, the blot was incubated with horseradish peroxidase-conjugated secondary antibody and the signals visualized by enhanced chemiluminescence system as described by the manufacturer (GE Healthcare). To test fusion protein expression in multiple prostate derived cell lines, lysates from DU145, PrEC, RWPE, 22RV1, VCaP, PC3 either untreated or treated with 500 nM bortezomib for 12 hours were used. Bortezomib treated HEK cells over-expressing UBE2L3-KRAS fusion protein was used as a positive control. […] For ERK activation analysis NIH 3T3 cells were starved for 12 hours before immunoblot analysis using phospho erk1/2 antibody. All antibodies for the MAPK signaling proteins were purchased from Cell Signaling Technologies.
For orientation: In western blotting, separated proteins are transferred to a membrane and probed.

Each structure is given as a SMILES string.

Take `CC(C)C[C@H](NC(=O)[C@H](Cc1ccccc1)NC(=O)c1cnccn1)B(O)O` [bortezomib]: under “DU145 cells, 500 nM bortezomib for 12 hours”, the “levels of UBE2L3-KRAS protein expression (Western blot)” value is given as “enhanced the levels of UBE2L3-KRAS protein expression”. The “expression of the UBE2L3-KRAS fusion protein (Western blot)” value is given as “expression of the fusion protein was clearly apparent” (HEK293 cells over-expressing UBE2L3-KRAS construct, 500 nM bortezomib for 12 hours) and “proteosomal inhibition with bortezomib was required” (RWPE prostate epithelial cells overexpressing UBE2L3-KRAS).

These data come from patent US20140364331A1, “RECURRENT GENE FUSIONS IN PROSTATE CANCER” (THE REGENTS OF THE UNIVERSITY OF MICHIGAN, priority 2009, published 2014).
